Measurements as given in patent publication US7189720B2 (H. Lundbeck A/S, priority 1999, dated 2007).
Like-named read-outs stand apart in the source and are kept apart here.

Target: T1, human Y5 receptor (Homo sapiens, UniProt Q15761)
T1 construct: expressed in transfected cells; host or cells: mouse fibroblast LM(tk-) cells, e.g. L-hY5-7 (ATCC CRL-11995)
T1 sequence (Q15761 1-445): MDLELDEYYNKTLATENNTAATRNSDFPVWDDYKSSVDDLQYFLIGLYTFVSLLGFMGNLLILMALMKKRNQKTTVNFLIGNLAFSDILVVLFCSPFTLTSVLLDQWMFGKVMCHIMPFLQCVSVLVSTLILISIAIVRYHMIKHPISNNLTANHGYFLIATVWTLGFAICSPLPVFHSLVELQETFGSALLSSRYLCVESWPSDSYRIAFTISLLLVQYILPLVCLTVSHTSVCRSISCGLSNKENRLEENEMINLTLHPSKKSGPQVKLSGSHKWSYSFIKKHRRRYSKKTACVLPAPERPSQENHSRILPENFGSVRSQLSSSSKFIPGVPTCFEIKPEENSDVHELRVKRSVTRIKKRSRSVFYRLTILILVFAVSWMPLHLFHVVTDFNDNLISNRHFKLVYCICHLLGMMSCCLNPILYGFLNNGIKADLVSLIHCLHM
Test: Radioligand binding to membranes, cloned human Y5 receptor

[1] = Table 6, read-out: Ki, nM hNPY-5
[2] = Table 5, read-out: Ki, nM hNPY-5
[3] = Table 3, read-out: Ki (nM) hNPY-5
[4] = Table 1, read-out: Ki (nM) hNPY-5
[5] = Table 2, read-out: Ki (nM) hNPY-5

Q: For O=S(=O)(NC[C@H]1CC[C@H](Nc2nc3c(s2)CCSc2ccccc2-3)CC1)c1ccc(-c2ccon2)s1 [Example 126, N2-{[4-(4,5-Dihydrobenzo[2,3]thiepino[4,5-d][1,3]thiazol-2-ylamino)cyclohexyl]methyl}-5-(3-isoxazolyl)-2-thiophenesulfonamide], which Ki [1] is on record?
A: 34 nM

Q: With COc1ccc(C)cc1S(=O)(=O)NCCCCCNc1nc(-c2nc(C)sc2C)cs1 [Example 93, N1-(5-[4-(2,5-Dimethyl-1,3-thiazol-4-yl)-1,3-thiazol-2-yl]aminopentyl)-2-methoxy-5-methyl-1-benzenesulfonamide] as the molecule, how does the Ki [2] read?
A: 3.6 nM

Q: CS(=O)(=O)NCCCCCCNc1nc2c(s1)CCSc1ccccc1-2 [Example 103, N-[6-(4,5-Dihydrobenzo[2,3]thiepino[4,5-d][1,3]thiazol-2-ylamino)hexyl]methanesulfonamide] was tested. Which Ki [1] did it give?
A: 7.4 nM

Q: For CC(C)N(C=O)[C@H]1CC[C@H](CNc2nc3c(s2)CCSc2ccc(F)cc2-3)CC1 [Example 166, N-(4-[(9-Fluoro-4,5-dihydrobenzo[2,3]thiepino[4,5-d][1,3]thiazol-2-yl)amino]methylcyclohexyl)-N-isopropylformamide], which Ki [1] is on record?
A: 6 nM

Q: With O=S(=O)(Cc1ccccc1)NCCCCCCNc1nc2c(s1)CCSc1ccccc1-2 [Example 148, N-[6-(4,5-Dihydrobenzo[2,3]thiepino[4,5-d][1,3]thiazol-2-ylamino)hexyl]phenylmethane-sulfonamide] as the molecule, how does the Ki [1] read?
A: 10.5 nM

Q: Which Ki [1] does the source give for O=S(=O)(NC[C@H]1CC[C@H](Nc2nc3c(s2)CCSc2ccccc2-3)CC1)c1ccc(-c2ccccn2)s1 [Example 120, N2-{[4-(4,5-Dihydrobenzo[2,3]thiepino[4,5-d][1,3]thiazol-2-ylamino)cyclohexyl]methyl}-5-(2-pyridyl)-2-thiophenesulfonamide] here?
A: 54 nM

Q: How did the Ki [3] turn out when CC(C)Nc1nc(NCC2CCC(CNS(=O)(=O)NC3CC3)CC2)nc(NC2CC2)n1 (stereo not shown) [Example 47, N-cyclopropyl-N′-[4-([4-(cyclopropylamino)-6-(isopropylamino)-1,3,5-triazin-2-yl]aminomethyl)cyclohexyl]methylsulfamide] was run?
A: 359 nM

Q: How did the Ki [4] turn out when CC(C)Nc1nc(NCC2CCC(CNS(=O)(=O)c3cccc4ccccc34)CC2)nc(N2C[C@@H](C)O[C@@H](C)C2)n1 (stereo partly drawn) [Example 25, N1-{[4-({[4-[(2R,6S)-2,6-dimethyl-1,4-oxazinan-4-yl]-6-(isopropylamino)-1,3,5-triazin-2-yl]amino}methyl)cyclohexyl]methyl}-1-naphthalenesulfonamide] was run?
A: 135 nM

Q: How did the Ki [2] turn out when Cc1nc(-c2csc(NCCCCCNS(=O)(=O)c3ccc(F)cc3)n2)c(C)s1 [Example 94, N1-(5-[4-(2,5-Dimethyl-1,3-thiazol-4-yl)-1,3-thiazol-2-yl]aminopentyl)-4-fluoro-1-benzenesulfonamide] was run?
A: 19.5 nM

Q: For O=S(=O)(NCCCCCCNc1nc2c(s1)CCSc1ccccc1-2)c1ccc(F)cc1F [Example 145, N1-[6-(4,5-Dihydrobenzo[2,3]thiepino[4,5-d][1,3]thiazol-2-ylamino)hexyl]-2,4-difluoro-1-benzenesulfonamide], which Ki [1] is on record?
A: 4.1 nM

Q: For O=S(=O)(NCC1CCC(CNc2nc(NC3CC3)nc(-c3ccccn3)n2)CC1)c1ccc(F)cc1 (stereo not shown) [Example 55, N1-[4-([4-(cyclopropylamino)-6-(2-pyridyl)-1,3,5-triazin-2-yl]aminomethyl)cyclohexyl]methyl-4-fluoro-1-benzenesulfonamide], which Ki [3] is on record?
A: 209 nM

Q: For O=S(=O)(Cc1ccccc1)NCCCCCNc1nc(-c2ccccn2)cs1 [Example 66, 2-(5-(Benzylsulfonylamino)pentylamino-4-(2-pyridyl)thiazole hydrogen chloride], which Ki [2] is on record?
A: 45 nM

Q: With CCNc1nc(NCC)nc(NCC2CCC(CNS(=O)(=O)c3ccc(F)cc3)CC2)n1 (stereo not shown) [Example 30, N1-[4-([4,6-di(ethylamino)-1,3,5-triazin-2-yl]aminomethyl)cyclohexyl]methyl-4-fluoro-1-benzenesulfonamide] as the molecule, how does the Ki [5] read?
A: 40 nM

Q: How did the Ki [1] turn out when O=[N+]([O-])c1ccccc1S(=O)(=O)NC[C@H]1CC[C@H](Nc2nc3c(s2)CCSc2ccccc2-3)CC1 [Example 124, N1-{[4-(4,5-Dihydrobenzo[2,3]thiepino[4,5-d][1,3]thiazol-2-ylamino)cyclohexyl]methyl}-2-nitro-1-benzenesulfonamide] was run?
A: 11.5 nM

Q: How did the Ki [5] turn out when CCNc1nc(NCC)nc(NCC2CCC(CNS(=O)(=O)c3ccc(C)cc3)CC2)n1 (stereo not shown) [Example 39, N1-[4-([4,6-di(ethylamino)-1,3,5-triazin-2-yl]aminomethyl)cyclohexyl]methyl-4-methyl-1-benzenesulfonamide] was run?
A: 28 nM

Q: For CC(C)Nc1nc(Cl)nc(NCC2CCC(CNS(=O)(=O)c3ccc(C(C)(C)C)cc3)CC2)n1 (stereo not shown) [Example 51, N1-[4-([4-chloro-6-(isopropylamino)-1,3,5-triazin-2-yl]aminomethyl)cyclohexyl]methyl-4-(tert-butyl)-1-benzenesulfonamide], which Ki [3] is on record?
A: 3540 nM

Q: How did the Ki [4] turn out when CC(C)Nc1nc(NCCC#N)nc(NCC2CCC(CNS(=O)(=O)c3cccc4ccccc34)CC2)n1 (stereo not shown) [Example 10, N1-[4-([4-[(2-cyanoethyl)amino]-6-(isopropylamino)-1,3,5-triazin-2-yl]aminomethyl)cyclohexyl]methyl-1-naphthalenesulfonamide] was run?
A: 81 nM

Q: With CC(C)Nc1nc(NCCCn2ccnc2)nc(NCC2CCC(CNS(=O)(=O)c3cccc4ccccc34)CC2)n1 (stereo not shown) [Example 15, N1-[4-([4-[3-(1H-1-imidazolyl)propyl]amino-6-(isopropylamino)-1,3,5-triazin-2-yl]aminomethyl)cyclohexyl]methyl-1-naphthalenesulfonamide] as the molecule, how does the Ki [4] read?
A: 83 nM

Q: Which Ki [1] does the source give for O=C(NCCCCNc1nc2c(s1)CCSc1ccccc1-2)c1cccc2ccccc12 [Example 140, N1-[4-(4,5-Dihydrobenzo[2,3]thiepino[4,5-d][1,3]thiazol-2-ylamino)butyl]-1-naphthamide] here?
A: 123 nM

Q: How did the Ki [1] turn out when COCCN(C=O)[C@H]1CC[C@H](CNc2nc3c(s2)CCSc2ccccc2-3)CC1 [Example 163, trans-N-4-[(4,5-dihydrobenzo[2,3]thiepino[4,5-d][1,3]thiazol-2-ylamino)methyl]cyclohexyl-N-(2-methoxyethyl)formamide] was run?
A: 12.3 nM

Q: Which Ki [1] does the source give for COc1ccc(C)cc1S(=O)(=O)NC[C@H]1CC[C@H](Nc2nc3c(s2)CCSc2ccccc2-3)CC1 [Example 119, N1-{[4-(4,5-Dihydrobenzo[2,3]thiepino[4,5-d][1,3]thiazol-2-ylamino)cyclohexyl]methyl}-2-methoxy-5-methyl-1-benzenesulfonamide] here?
A: 14.1 nM

Q: For O=S(=O)(NCCCCCCNc1nc2c(s1)CCSc1ccccc1-2)c1cccc2nsnc12 [Example 112, N4-[6-(4,5-Dihydrobenzo[2,3]thiepino[4,5-d][1,3]thiazol-2-ylamino)hexyl]-2,1,3-benzothiadiazole-4-sulfonamide], which Ki [1] is on record?
A: 4.4 nM

Q: With CC(C)Nc1nc(NCC2CCC(CNS(=O)(=O)c3cccc4ccccc34)CC2)nc(N(C)CCO)n1 (stereo not shown) [Example 26, N1-[4-([4-[(2-hydroxyethyl)(methyl)amino]-6-(isopropylamino)-1,3,5-triazin-2-yl]aminomethyl)cyclohexyl]methyl-1-naphthalenesulfonamide] as the molecule, how does the Ki [4] read?
A: 86 nM

Q: How did the Ki [1] turn out when COc1cccc(Br)c1S(=O)(=O)NCCCCCCNc1nc2c(s1)CCSc1ccccc1-2 [Example 147, N1-[6-(4,5-Dihydrobenzo[2,3]thiepino[4,5-d][1,3]thiazol-2-ylamino)hexyl]-2-bromo-6-methoxy-1-benzenesulfonamide] was run?
A: 7.9 nM

Q: With Cc1nc(-c2cnc(NC[C@H]3CC[C@H](CNS(=O)(=O)N(C)C)CC3)s2)c(C)s1 [Example 99, trans-N′-[4-([5-(2,5-Dimethyl-1,3-thiazol-4-yl)-1,3-thiazol-2-yl]aminomethyl)cyclohexyl]methyl-N,N-dimethyl-sulfamide] as the molecule, how does the Ki [2] read?
A: 3.1 nM

Q: For Cc1ccc(S(=O)(=O)NC[C@H]2CC[C@H](Nc3nc4c(s3)CCSc3ccccc3-4)CC2)cc1 [Example 156, N1-{[4-(4,5-Dihydrobenzo[2,3]thiepino[4,5-d][1,3]thiazol-2-ylamino)cyclohexyl]methyl}-4-methyl-1-benzenesulfonamide], which Ki [1] is on record?
A: 6.6 nM

Q: With CCNc1nc(NCC)nc(NCC2CCC(CNS(=O)(=O)c3ccc(OC)cc3)CC2)n1 (stereo not shown) [Example 35, N1-[4-([4,6-di(ethylamino)-1,3,5-triazin-2-yl]aminomethyl)cyclohexyl]methyl-4-methoxy-1-benzenesulfonamide] as the molecule, how does the Ki [5] read?
A: 82 nM

Q: Which Ki [3] does the source give for CC(C)Nc1nc(NCC2CCC(CNS(=O)(=O)N3CCCCC3)CC2)nc(N2CCCCC2)n1 (stereo not shown) [Example 45, N1-[4-([4-(isopropylamino)-6-piperidino-1,3,5-triazin-2-yl]aminomethyl)cyclohexyl]methyl-1-piperidinesulfonamide] here?
A: 59 nM

Q: How did the Ki [4] turn out when COCCNc1nc(NCC2CCC(CNS(=O)(=O)c3cccc4ccccc34)CC2)nc(NC(C)C)n1 (stereo not shown) [Example 12, N1-(4-[(4-(isopropylamino)-6-[(2-methoxyethyl)amino]-1,3,5-triazin-2-ylamino)methyl]cyclohexylmethyl)-1-naphthalenesulfonamide] was run?
A: 18 nM

Q: Which Ki [1] does the source give for O=S(=O)(Cc1ccccc1)NCCCCCNc1nc2c(s1)CCSc1ccccc1-2 [Example 133, N-[5-(4,5-dihydrobenzo[2,3]thiepino[4,5-d][1,3]thiazol-2-ylamino)pentyl]phenyl-methanesulfonamide] here?
A: 38 nM

Q: With CCNc1nc(NCC)nc(NCC2CCC(CNS(=O)(=O)c3cn(C)cn3)CC2)n1 (stereo not shown) [Example 38, N4-[4-([4,6-di(ethylamino)-1,3,5-triazin-2-yl]aminomethyl)cyclohexyl]methyl-1-methyl-1H-4-imidazolesulfonamide] as the molecule, how does the Ki [5] read?
A: 313 nM
